# Test results published in patent publication US20240075087A1, “COMPOSITIONS AND METHODS COMPRISING HEMP EXTRACT FOR THE TREATMENT OF ANIMALS IN NEED” (Portland Technology Holdings LLC, priority 2021, published 2024).
# Legend:
# [1] = system: canine primary dermal fibroblasts (CDF); assay: Trypan blue exclusion assay, dermal fibroblasts; assay type: cell-based; conditions: 48 hours, vehicle control 16±3%
# Method: The trypan blue exclusion assay is performed on canine primary dermal fibroblasts (CDF) because of the slow rate of proliferation and low metabolic activity of these normal canine cells, precluding productive MTT assays. The effects of CBD treatments are compared with the results obtained on the 17-71, CMT12 and D17 cell lines for comparative purposes. For the CDF cells, applied cell extracellular matrix (ABM) is applied overnight to 24-well tissue culture-treated plates (Applied Biological Materials [ABM], Richmond, BC, Canada). For all cell lines, cells are plated at a density of 5×10^3 cells per well and incubated until 60% confluent before treatment with methanol vehicle control, 3.75, 7.5, and 15 μg/mL of CBD to cells for 48 hours. Cells are then trypsinized, collected and centrifuged at 1900 g for 10 minutes. With the exception of the 17-71 cell line, cells are detached with Accumax (Invitrogen, Carlsbad, California). The cell pellet is resuspended in 0.1% trypan blue (Sigma Aldrich, St Louis, Missouri) in PBS solution, loaded on a Cell Countess disposable cell counting slide with automatic counting of all positively stained cells in the Countess II Cell Counter under identical settings for each cell line (Invitrogen; ThermoFisher Scientific, Carlsbad, California) using the same parameters for each cell line. All treatments are performed in triplicate and the percent of viable cells are averaged.
# CMT12 and D17 cells = assay: LC3A/B immunofluorescence; assay type: cell-based, canine; conditions: 10 μg/mL CBD, 6 hours
# Method: CMT12 and D17 adherent cell lines are split into Nunc chamber slides (ThermoFisher Scientific, Rochester, New York) and the cells that are 70% confluent are treated for 6 hours with either methanol control or 10 μg/mL of CBD. Cells are fixed with 4% paraformaldehyde for 1 hour and then permeabilized with PBS containing 0.1% Triton X-100 for 30 minutes. Cells are then washed with PBS and incubated with bovine serum albumin (Sigma Aldrich, St. Louis, Missouri) for 30 minutes and then goat anti-serum (Vector Labs, Burlingame, California) for 1 hour and then washed twice with PBS for 10 minutes while rocking at room temperature. […] Coverslips are mounted using Vectrashield DAPI mounting media (Vector Labs, Burlingame, California) and the images are captured at the same fluorescence intensity for each image at 400 or 600 magnification and processed using an Olympus fluorescent microscope and DP controller software (Olympus Corp., Center Valley, Pennsylvania).
structure (smiles),measurement,setting,value
"C=C(C)[C@@H]1CCC(C)=C[C@H]1c1c(O)cc(CCCCC)cc1O [CBD, cannabidiol]",percent trypan blue positive cells,[1]; 3.75 μg/mL CBD,32±5%
same,percent trypan blue positive cells,[1]; 7.5 μg/mL CBD,58±7%
same,percent trypan blue positive cells,[1]; 15 μg/mL CBD,77±12%
same,LC3A/B immunofluorescence,CMT12 and D17 cells,numerous discrete punctate intensely staining vesicles
